Patent US20130131059A1, “METHOD FOR TREATING OPHTHALMIC DISEASES USING KINASE INHIBITOR COMPOUNDS IN PRODRUG FORMS” (INSPIRE PHARMACEUTICALS, INC., priority 2010, published 2013)
Like-named read-outs stand apart in the source and are kept apart here.

Columns and labels:
[1] = Ocular surface and aqueous humor bioavailability; type: in vivo, New Zealand White rabbits; settings: New Zealand White, rabbit, topical, 30 μl of 1 mM (0.04% w/v) per eye, Compound 14 dosed 1 mM, 1 × 30 uL, 4 eyes
Method: Dose Formulation and Administration. Compounds 14 (prodrug) and 49 (base compound) were formulated at 0.04% w/v (the equivalent millimolar concentration is 1 mM) in 10 mM phosphate, 0.8% polysorbate 80, 0.85% NaCl, 0.01% BAC, 0.1% EDTA at pH 7.3. Each compound was administered as a 30 μl drop to both eyes of each animal within a dosing group and the ocular and systemic exposure was examined as described in Example 49.
Study sampling. 40 μL of saline was applied to the eyes at 0.083, 1, 2, and 4 hours after administration of each compound and the lavage fluids were collected as samples. Aqueous humor and ocular surface samples were obtained from 2 animals (4 eyes) per dosing group at 0.083, 1, 2, and 4 hours post dosing, by the methods described in Example 49. Ocular surface relates to the surface of the cornea and conjunctiva. Ocular surface residence time is the average time that a compound resides on the ocular surface.

ROCK1 = target: T1, ROCK1 (Homo sapiens, UniProt Q13464); experiment: Rho kinase inhibition assay (IMAP fluorescence polarization), ROCK1; type: biochemical; settings: 10 μM ATP, 60 min at room temperature; read-out: ROCK1 IC50
T1 construct: purchased Upstate/Chemicon 14-601
Method: (§1) Following the pre-incubation, 10 μM ATP was added to initiate the reaction. After 60 minutes at room temperature, Molecular Devices IMAP™ binding solution was added to bind phosphorylated substrate. After 30 minutes of incubation in the presence of the IMAP™ beads, the fluorescence polarization was read and the ratio was reported as mP.

[2] = Ocular comfort, composite behaviour score after ocular instillation; type: in vivo, rabbit; settings: 4 mM, two drops to right eye, evaluated for 15 minutes; FIGS. 1 and 2
Method: The desired compound at a concentration of 4 mM in a formulation of 10 mM phosphate, 1% polysorbate 80, 0.85% NaCl, 0.02% BAC, 0.2% EDTA pH 7.0 was administered as two 30 µl drops to the right eye of each rabbit within a dosing group. The rabbits were evaluated for 15 minutes after ocular instillation and their changes in behavior were recorded. […] The higher the score, the more discomfort an animal senses. A mean ±SE was generated for each group and depicted in FIGS. 1 and 2.

[3] = Ocular surface and aqueous humor bioavailability; type: in vivo, New Zealand White rabbits; settings: New Zealand White, rabbit, topical, 30 μl of 1 mM (0.04% w/v) per eye, Compound 14 dosed 1 mM, 1 × 30 uL, 4 eyes, time 0.83 h
ROCK2 = target: T2, ROCK2 (Homo sapiens, UniProt O75116); experiment: Rho kinase inhibition assay (IMAP fluorescence polarization), ROCK2; type: biochemical; settings: 10 μM ATP, 60 min at room temperature
T2 construct: purchased Upstate/Chemicon 14-451
Method: as §1, with “(Molecular Devices product number R7184) was pre-incubated with a test compound for 5 minutes in buffer containing 10 mM Tris-HCl pH 7.2, 10 mM MgCl2, and 0.1% BSA. Following” for “Following”
See Tian et al., Arch. Ophthalmol. […] Ophthalmol. Vis. […] Ophthalmol. […] Cytoskel. […] Ophthalmol. Vis. […] Ophthalmol. Vis.

[4] = aqueous humor, read-out: Aqueous Humor concentration of [14], Mean
[5] = ocular surface (saline lavage fluid), read-out: Ocular Surface concentration of [14], Mean

T2 sequence (O75116 whole entry): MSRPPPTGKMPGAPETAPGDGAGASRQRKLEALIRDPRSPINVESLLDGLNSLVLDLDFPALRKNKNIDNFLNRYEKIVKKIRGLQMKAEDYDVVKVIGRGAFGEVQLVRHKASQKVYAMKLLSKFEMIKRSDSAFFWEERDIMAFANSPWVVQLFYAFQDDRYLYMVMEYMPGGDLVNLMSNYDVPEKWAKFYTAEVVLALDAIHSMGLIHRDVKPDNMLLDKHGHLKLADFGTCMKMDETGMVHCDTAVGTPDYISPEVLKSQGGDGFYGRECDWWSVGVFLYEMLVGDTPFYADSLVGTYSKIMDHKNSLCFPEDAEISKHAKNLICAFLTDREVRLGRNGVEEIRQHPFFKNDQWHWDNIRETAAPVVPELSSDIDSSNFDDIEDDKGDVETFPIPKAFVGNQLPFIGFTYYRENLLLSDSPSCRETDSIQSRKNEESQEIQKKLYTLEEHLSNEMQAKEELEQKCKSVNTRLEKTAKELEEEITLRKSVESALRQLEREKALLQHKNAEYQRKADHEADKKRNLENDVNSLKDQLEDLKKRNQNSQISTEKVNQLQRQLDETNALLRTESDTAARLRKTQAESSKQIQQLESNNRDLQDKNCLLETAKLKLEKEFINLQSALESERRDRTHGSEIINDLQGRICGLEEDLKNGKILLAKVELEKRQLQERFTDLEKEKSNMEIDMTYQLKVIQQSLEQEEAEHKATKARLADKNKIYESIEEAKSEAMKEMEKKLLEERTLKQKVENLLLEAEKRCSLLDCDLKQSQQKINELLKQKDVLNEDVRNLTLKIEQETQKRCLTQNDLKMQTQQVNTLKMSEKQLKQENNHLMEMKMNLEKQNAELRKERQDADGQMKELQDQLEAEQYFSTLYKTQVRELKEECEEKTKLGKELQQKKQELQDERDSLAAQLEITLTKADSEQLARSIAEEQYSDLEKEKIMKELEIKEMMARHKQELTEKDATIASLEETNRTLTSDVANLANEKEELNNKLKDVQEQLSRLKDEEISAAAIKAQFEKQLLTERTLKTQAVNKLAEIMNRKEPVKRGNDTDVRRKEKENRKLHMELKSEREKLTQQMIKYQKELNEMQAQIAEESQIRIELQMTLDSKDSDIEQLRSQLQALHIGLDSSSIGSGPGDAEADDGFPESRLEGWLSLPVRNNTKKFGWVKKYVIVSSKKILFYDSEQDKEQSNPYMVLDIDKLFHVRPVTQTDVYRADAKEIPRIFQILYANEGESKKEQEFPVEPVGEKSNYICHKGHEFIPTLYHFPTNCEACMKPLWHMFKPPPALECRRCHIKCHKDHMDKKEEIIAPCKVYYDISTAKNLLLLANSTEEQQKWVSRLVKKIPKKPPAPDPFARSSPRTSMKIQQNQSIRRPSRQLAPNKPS
T1 sequence (Q13464 whole entry): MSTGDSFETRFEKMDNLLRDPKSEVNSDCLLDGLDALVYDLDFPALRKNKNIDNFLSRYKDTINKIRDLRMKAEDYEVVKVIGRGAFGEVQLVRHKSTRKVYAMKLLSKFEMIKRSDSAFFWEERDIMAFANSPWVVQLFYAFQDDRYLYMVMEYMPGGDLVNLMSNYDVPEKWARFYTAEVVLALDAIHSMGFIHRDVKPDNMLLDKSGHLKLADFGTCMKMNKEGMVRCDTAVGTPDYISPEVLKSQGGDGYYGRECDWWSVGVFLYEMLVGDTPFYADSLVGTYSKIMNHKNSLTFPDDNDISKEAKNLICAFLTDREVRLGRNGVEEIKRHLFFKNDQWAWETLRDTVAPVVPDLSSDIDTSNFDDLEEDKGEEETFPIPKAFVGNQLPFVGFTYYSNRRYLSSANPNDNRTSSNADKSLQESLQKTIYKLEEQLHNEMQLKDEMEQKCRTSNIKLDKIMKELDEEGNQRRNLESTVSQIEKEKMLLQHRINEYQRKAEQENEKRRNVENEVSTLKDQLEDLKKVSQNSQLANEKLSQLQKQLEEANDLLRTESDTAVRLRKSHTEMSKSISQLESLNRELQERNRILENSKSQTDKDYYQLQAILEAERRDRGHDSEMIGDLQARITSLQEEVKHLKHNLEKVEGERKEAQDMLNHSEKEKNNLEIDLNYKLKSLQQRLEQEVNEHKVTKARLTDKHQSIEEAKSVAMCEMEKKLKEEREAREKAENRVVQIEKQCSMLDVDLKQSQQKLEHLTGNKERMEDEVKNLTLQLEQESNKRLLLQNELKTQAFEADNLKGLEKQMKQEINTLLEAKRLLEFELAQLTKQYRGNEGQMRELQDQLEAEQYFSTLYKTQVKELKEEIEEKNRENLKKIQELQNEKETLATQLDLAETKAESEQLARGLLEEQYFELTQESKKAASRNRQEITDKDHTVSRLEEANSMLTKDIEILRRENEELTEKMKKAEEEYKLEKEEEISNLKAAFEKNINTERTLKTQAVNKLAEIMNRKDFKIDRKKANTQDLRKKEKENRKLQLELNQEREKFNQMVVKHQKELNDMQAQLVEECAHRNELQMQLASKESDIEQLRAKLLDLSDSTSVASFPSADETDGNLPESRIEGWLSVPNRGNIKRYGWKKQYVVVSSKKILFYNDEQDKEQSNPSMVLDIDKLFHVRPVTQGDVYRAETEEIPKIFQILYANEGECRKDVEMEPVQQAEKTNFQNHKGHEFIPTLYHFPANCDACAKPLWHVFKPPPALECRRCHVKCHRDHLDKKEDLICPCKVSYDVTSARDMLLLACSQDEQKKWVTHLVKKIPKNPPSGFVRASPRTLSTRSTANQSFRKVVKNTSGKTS

Cc1ccc(CN2CC[C@@H](Nc3cccc4cnccc34)C2)cc1OCCOC(=O)c1ccccc1 [Compound 14, 2-(5-(((R)-3-isoquinolin-5-ylamino)pyrrolidin-1-yl)methyl)-2-methylphenoxy)ethyl benzoate]
concentration at 1 h [1, 4]: 0 µM | concentration at 2 h [1, 4]: 0 µM | concentration at 4 h [1, 4]: 0 nM | concentration at 1 h [1, 5]: 3.08 µM | concentration at 2 h [1, 5]: 0.245 µM | concentration at 4 h [1, 5]: 0 nM | IC50 (ROCK1): 2460 nM | Ocular discomfort (composite score) versus parent compound [2]: reduced level of discomfort compared to the parent compound | concentration at […] [3, 4]: 0 µM | concentration at […] [3, 5]: 24.3 µM | IC50 (ROCK2): 717 nM
